Source: US20250136607A1 (REGOR PHARMACEUTICALS, INC., priority 2021, published 2025)
pIC50: −log10 of the molar value.

These compounds were tested against Protein arginine deiminase 4 (PAD4) (Homo sapiens, UniProt Q9UM07) (assay: PAD4 ammonia release assay). Conditions: PAD4 activity comparison; read-out: PAD4 Ammonia assay IC50.
Assay type: biochemical
Description: 1) Compound preparation: The compounds were diluted to 80× final concentrations. 2) The compounds were transferred to a 384-well assay plate by Tecan. DMSO: 1.25%. 3) Preparation of 1×Assay buffer: 100 mM HEPES, PH=8.0, 2 mM CaCl2, 50 mM NaCl, 0.1 mM TCEP, 0.6 mg/ml BSA. 4) 2× enzyme working solution (PAD4:20 nM) was prepared with assay buffer, and 10 μL of the obtained working solution were added to the 384-well assay plates. 5) The plate was centrifuged at 1000 rpm for 1 min. 6) After the centrifuge, the plate was incubated at RT for 15 min. 7) 2×BAEE substrate mix (600 μM) was prepared with assay buffer and 10 μL of the obtained substrate mix were added to each well. 8) The plate was centrifuged at 1000 rpm for 1 min and then incubated at RT for 60 min. 9) 1.5× detection mix (DTT:4 mM, OPA:3 mM, EDTA: 30 mM) was prepared, and 10 μL of the mix were added to the plate. 10) The plate was centrifuged at 1000 rpm for 1 min and then incubated at RT for 120 min. 11) The 384-well plates were placed into the Envision (PerkinElmer) and the assay data were collected.
The percent (%) inhibition at each concentration of compound was calculated based on and relative to the signal in the HPE (50 μM ref. compound) and ZPE (1.25% DMSO) wells included within each assay plate. The HPE worked as 100% inhibition, and the ZPE worked as 0% inhibition. The concentrations and % inhibition values for tested compounds were plotted and the concentration of compound required for 50% inhibition (IC50) was determined with a Four-parameter logistic dose response equation. The endpoint value (IC50) for the reference compound was evaluated in each experiment as a quality control measure. If the endpoint value is within 3-fold of the expected value, then the experiment quality is deemed as acceptable. The results are provided in Table 1 below. ≤0.1 μM=“++++”; >0.1 and ≤0.5 μM=“+++”; >0.5 and ≤5.0 μM=“++”; >5.0 μM=“+”. “−”=not available.

Sequence of Protein arginine deiminase 4 (PAD4) (Q9UM07 whole entry): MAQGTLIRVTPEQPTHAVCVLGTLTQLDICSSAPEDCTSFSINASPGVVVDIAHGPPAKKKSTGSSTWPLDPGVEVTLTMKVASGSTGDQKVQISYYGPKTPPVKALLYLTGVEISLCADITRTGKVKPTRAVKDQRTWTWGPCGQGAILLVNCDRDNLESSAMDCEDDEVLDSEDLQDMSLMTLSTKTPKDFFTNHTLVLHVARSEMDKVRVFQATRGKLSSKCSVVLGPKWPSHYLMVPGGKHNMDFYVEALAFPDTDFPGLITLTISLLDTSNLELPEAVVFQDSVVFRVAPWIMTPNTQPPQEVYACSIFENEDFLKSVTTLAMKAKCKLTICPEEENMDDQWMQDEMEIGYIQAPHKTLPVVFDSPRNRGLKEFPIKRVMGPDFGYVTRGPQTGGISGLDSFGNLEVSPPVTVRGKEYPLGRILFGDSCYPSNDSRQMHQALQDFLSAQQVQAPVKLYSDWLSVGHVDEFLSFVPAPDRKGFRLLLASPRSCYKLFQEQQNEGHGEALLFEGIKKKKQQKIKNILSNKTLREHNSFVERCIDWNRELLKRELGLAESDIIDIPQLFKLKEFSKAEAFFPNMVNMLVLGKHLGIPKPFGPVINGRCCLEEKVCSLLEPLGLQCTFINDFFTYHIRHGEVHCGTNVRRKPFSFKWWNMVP

SMILES | pIC50
COc1cc(C(=O)N2CCC[C@@H](N)C2)cc2nc(-c3cc4cccc5c4n3C(C)CN5)n(C)c12 (stereo partly drawn) [Example 65, ((R)-3-aminopiperidin-1-yl)(7-methoxy-1-methyl-2-(3-methyl-2,3-dihydro-1H-pyrrolo[1,2,3-de]quinoxalin-5-yl)-1H-benzo[d]imidazol-5-yl)methanone] | 5.59

Same assay, conditions: PAD4 ammonia release assay, BAEE substrate, 60 min at RT; read-out: Average IC50 Abs

SMILES | pIC50
CCn1cc(Cn2c(-c3cc4cccc5c4n3CCN5CCO)nc3cc(C(=O)N4C[C@H](N)C[C@@H](F)C4)cc(F)c32)cn1 [Example 39, ((3R,5R)-3-amino-5-fluoropiperidin-1-yl)(1-((1-ethyl-1H-pyrazol-4-yl)methyl)-7-fluoro-2-(1-(2-hydroxyethyl)-2,3-dihydro-1H-pyrrolo[1,2,3-de]quinoxalin-5-yl)-1H-benzo[d]imidazol-5-yl)methanone] | 6.30 to 7.00
CCn1cc(Cn2c(-c3cc4cccc5c4n3CCN5CCCOC)nc3cc(C(=O)N4C[C@H](N)C[C@@H](F)C4)cc(F)c32)cn1 [Example 41, ((3R,5R)-3-amino-5-fluoropiperidin-1-yl)(1-((1-ethyl-1H-pyrazol-4-yl)methyl)-7-fluoro-2-(1-(3-methoxypropyl)-2,3-dihydro-1H-pyrrolo[1,2,3-de]quinoxalin-5-yl)-1H-benzo[d]imidazol-5-yl)methanone] | 6.30 to 7.00
COc1cc(C(=O)N2C[C@H]3CC[C@@H]2[C@@H]3N)cc2nc(-c3cc4cccc5c4n3CCN5CCCO)n(Cc3cnn(C)c3)c12 [Example 45, ((1R,4R,7R)-7-amino-2-azabicyclo[2.2.1]heptan-2-yl)(2-(1-(3-hydroxypropyl)-2,3-dihydro-1H-pyrrolo[1,2,3-de]quinoxalin-5-yl)-7-methoxy-1-((1-methyl-1H-pyrazol-4-yl)methyl)-1H-benzo[d]imidazol-5-yl)methanone] | < 5.30
COc1cc(C(=O)N2C[C@H](N)C[C@@H](F)C2)cc2nc(-c3cc4cccc5c4n3CCN5CCCO)n(CC(F)F)c12 [Example 51, ((3R,5R)-3-amino-5-fluoropiperidin-1-yl)(1-(2,2-difluoroethyl)-2-(1-(3-hydroxypropyl)-2,3-dihydro-1H-pyrrolo[1,2,3-de]quinoxalin-5-yl)-7-methoxy-1H-benzo[d]imidazol-5-yl)methanone] | 6.30 to 7.00
COc1cc(C(=O)N2CCC3(CC3N)C2)cc2nc(-c3cc4cccc5c4n3CCN5CCCO)n(CC3CC3)c12 (stereo not drawn) [Example 52, (1-amino-5-azaspiro[2.4]heptan-5-yl)(1-(cyclopropylmethyl)-2-(1-(3-hydroxypropyl)-2,3-dihydro-1H-pyrrolo[1,2,3-de]quinoxalin-5-yl)-7-methoxy-1H-benzo[d]imidazol-5-yl)methanone] | < 5.30
COc1cc(C(=O)N2CC3CNC3C2)cc2nc(-c3cc4cccc5c4n3CCN5CCCO)n(CC3CC3)c12 (stereo not drawn) [Example 53, (3,6-diazabicyclo[3.2.0]heptan-3-yl)(1-(cyclopropylmethyl)-2-(1-(3-hydroxypropyl)-2,3-dihydro-1H-pyrrolo[1,2,3-de]quinoxalin-5-yl)-7-methoxy-1H-benzo[d]imidazol-5-yl)methanone] | < 5.30
COc1cc(C(=O)N2CC3C(N)C3C2)cc2nc(-c3cc4cccc5c4n3CCN5CCCO)n(CC3CC3)c12 (stereo not drawn) [Example 54, (6-amino-3-azabicyclo[3.1.0]hexan-3-yl)(1-(cyclopropylmethyl)-2-(1-(3-hydroxypropyl)-2,3-dihydro-1H-pyrrolo[1,2,3-de]quinoxalin-5-yl)-7-methoxy-1H-benzo[d]imidazol-5-yl)methanone] | < 5.30
COc1cc(C(=O)N2CCC3CC3(N)C2)cc2nc(-c3cc4cccc5c4n3CCN5CCCO)n(CC3CC3)c12 (stereo not drawn) [Example 55, (1-amino-3-azabicyclo[4.1.0]heptan-3-yl)(1-(cyclopropylmethyl)-2-(1-(3-hydroxypropyl)-2,3-dihydro-1H-pyrrolo[1,2,3-de]quinoxalin-5-yl)-7-methoxy-1H-benzo[d]imidazol-5-yl)methanone] | 5.30 to 6.30
COc1cc(C(=O)N2CCC3(CC2)CC3N)cc2nc(-c3cc4cccc5c4n3CCN5CCCO)n(CC3CC3)c12 (stereo not drawn) [Example 56, (1-amino-6-azaspiro[2.5]octan-6-yl)(1-(cyclopropylmethyl)-2-(1-(3-hydroxypropyl)-2,3-dihydro-1H-pyrrolo[1,2,3-de]quinoxalin-5-yl)-7-methoxy-1H-benzo[d]imidazol-5-yl)methanone] | < 5.30
COc1cc(C(=O)N2CC(F)(F)C3(CNC3)C2)cc2nc(-c3cc4cccc5c4n3CCN5CCCO)n(CC3CC3)c12 [Example 57, (1-(cyclopropylmethyl)-2-(1-(3-hydroxypropyl)-2,3-dihydro-1H-pyrrolo[1,2,3-de]quinoxalin-5-yl)-7-methoxy-1H-benzo[d]imidazol-5-yl)(8,8-difluoro-2,6-diazaspiro[3.4]octan-6-yl)methanone] | < 5.30
COc1cc(C(=O)N2CC[C@H](F)[C@H](N)C2)cc2nc(-c3cc4cccc5c4n3CCN5CCCO)n(CC3CC3)c12 [Example 58, ((3R,4S)-3-amino-4-fluoropiperidin-1-yl)(1-(cyclopropylmethyl)-2-(1-(3-hydroxypropyl)-2,3-dihydro-1H-pyrrolo[1,2,3-de]quinoxalin-5-yl)-7-methoxy-1H-benzo[d]imidazol-5-yl)methanone] | 5.30 to 6.30
COc1cc(C(=O)N2C[C@H](N)C3(CC3)C2)cc2nc(-c3cc4cccc5c4n3CCN5CCCO)n(CC3CC3)c12 [Example 60, (R)-(7-amino-5-azaspiro[2.4]heptan-5-yl)(1-(cyclopropylmethyl)-2-(1-(3-hydroxypropyl)-2,3-dihydro-1H-pyrrolo[1,2,3-de]quinoxalin-5-yl)-7-methoxy-1H-benzo[d]imidazol-5-yl)methanone] | < 5.30
COc1cc(C(=O)N2C[C@@H](N)C3(CC3)C2)cc2nc(-c3cc4cccc5c4n3CCN5CCCO)n(CC3CC3)c12 [Example 61, (S)-(7-amino-5-azaspiro[2.4]heptan-5-yl)(1-(cyclopropylmethyl)-2-(1-(3-hydroxypropyl)-2,3-dihydro-1H-pyrrolo[1,2,3-de]quinoxalin-5-yl)-7-methoxy-1H-benzo[d]imidazol-5-yl)methanone] | < 5.30
COc1cc(-n2cc3c(n2)CCC(N)C3)cc2nc(-c3cc4cccc5c4n3CCN5CCCO)n(C)c12 (stereo not drawn) [Example 62, 3-(5-(5-(5-amino-4,5,6,7-tetrahydro-2H-indazol-2-yl)-7-methoxy-1-methyl-1H-benzo[d]imidazol-2-yl)-2,3-dihydro-1H-pyrrolo[1,2,3-de]quinoxalin-1-yl)propan-1-ol] | < 5.30
COc1cc(C(=O)N2C[C@H](N)C[C@@H](F)C2)cc2nc(-c3cc4cccc5c4n3CCN5CCCO)n(OC)c12 [Example 63, ((3R,5R)-3-amino-5-fluoropiperidin-1-yl)(2-(1-(3-hydroxypropyl)-2,3-dihydro-1H-pyrrolo[1,2,3-de]quinoxalin-5-yl)-1,7-dimethoxy-1H-benzo[d]imidazol-5-yl)methanone] | < 5.30
COc1cc(C(=O)N2CCC[C@@H](N)C2)cc2nc(-c3cc4cccc5c4n3C(C)CN5)n(C)c12 (stereo partly drawn) [Example 65, ((R)-3-aminopiperidin-1-yl)(7-methoxy-1-methyl-2-(3-methyl-2,3-dihydro-1H-pyrrolo[1,2,3-de]quinoxalin-5-yl)-1H-benzo[d]imidazol-5-yl)methanone] | 5.30 to 6.30
CCn1c(-c2cc3cccc4c3n2C(C)CN4CCCO)nc2cc(C(=O)N3C[C@H](N)C[C@@H](F)C3)cc(OC)c21 (stereo partly drawn) [Example 66, ((3R,5R)-3-amino-5-fluoropiperidin-1-yl)(1-ethyl-2-(1-(3-hydroxypropyl)-3-methyl-2,3-dihydro-1H-pyrrolo[1,2,3-de]quinoxalin-5-yl)-7-methoxy-1H-benzo[d]imidazol-5-yl)methanone] | 5.30 to 6.30
CCn1c(-c2cc3cccc4c3n2C(C)CN4CCCO)nc2cc(C(=O)N3C[C@H]4CC[C@@H]3[C@@H]4NC(=O)OC(C)(C)C)cc(OC)c21 (stereo partly drawn) [Example 67, tert-butyl ((1R,4R,7R)-2-(1-ethyl-2-(1-(3-hydroxypropyl)-3-methyl-2,3-dihydro-1H-pyrrolo[1,2,3-de]quinoxalin-5-yl)-7-methoxy-1H-benzo[d]imidazole-5-carbonyl)-2-azabicyclo[2.2.1]heptan-7-yl)carbamate] | < 5.30
CC[C@@H]1CN(CCCO)c2cccc3cc(-c4nc5cc(C(=O)N6C[C@H]7CC[C@@H]6[C@@H]7N)cc(F)c5n4C)n1c23 [Example 70, ((1R,4R,7R)-7-amino-2-azabicyclo[2.2.1]heptan-2-yl)(2-((R)-3-ethyl-1-(3-hydroxypropyl)-2,3-dihydro-1H-pyrrolo[1,2,3-de]quinoxalin-5-yl)-7-fluoro-1-methyl-1H-benzo[d]imidazol-5-yl)methanone] | < 5.30
CC[C@@H]1CNc2cccc3cc(-c4nc5cc(C(=O)N6C[C@H]7CC[C@@H]6[C@@H]7N)cc(F)c5n4C)n1c23 [Example 73, ((1R,4R,7R)-7-amino-2-azabicyclo[2.2.1]heptan-2-yl)(2-((R)-3-ethyl-2,3-dihydro-1H-pyrrolo[1,2,3-de]quinoxalin-5-yl)-7-fluoro-1-methyl-1H-benzo[d]imidazol-5-yl)methanone] | < 5.30
